Reference: PMC2935290 (Journal of immunology (Baltimore, Md. : 1950), 2010)
Changes are numbered by the printed parent chain. Where a SMILES comes first, the peptide text is derived from it. Where no end group is shown, it is not given here.

What was measured:
[1] = molecular target: T1, HLA-DPB1*0201 (Homo sapiens, UniProt P04440+P20036, A65V/A84D/A85E/K98E); assay: biochemical; format: binding
T1 sequence (P04440 30-258 A65V/A84D/A85E/K98E): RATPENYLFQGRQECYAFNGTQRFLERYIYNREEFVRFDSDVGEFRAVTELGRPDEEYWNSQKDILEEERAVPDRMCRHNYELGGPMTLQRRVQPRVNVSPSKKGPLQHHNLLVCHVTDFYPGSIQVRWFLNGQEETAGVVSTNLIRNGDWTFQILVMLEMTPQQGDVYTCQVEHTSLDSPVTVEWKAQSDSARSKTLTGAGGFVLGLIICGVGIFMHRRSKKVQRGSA
T1 sequence (P20036 29-260): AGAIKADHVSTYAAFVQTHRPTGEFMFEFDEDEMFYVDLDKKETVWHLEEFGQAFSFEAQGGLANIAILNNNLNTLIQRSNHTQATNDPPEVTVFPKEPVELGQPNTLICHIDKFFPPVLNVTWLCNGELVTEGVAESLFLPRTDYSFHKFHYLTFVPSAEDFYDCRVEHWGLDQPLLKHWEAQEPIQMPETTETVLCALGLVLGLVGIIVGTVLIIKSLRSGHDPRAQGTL

[2] = molecular target: T2, HLA-DPB1*0402 (Homo sapiens, UniProt P04440+P20036, A65V/A84D/A85E/L207M); assay: biochemical; format: binding
T2 sequence (P04440 30-258 A65V/A84D/A85E): T1 sequence (P04440 30-258 A65V/A84D/A85E/K98E) with E69K
T2 sequence (P20036 29-260): T1 sequence (P20036 29-260)

Row | Compound | IC50 [1] | IC50 [2]
1 | CC[C@H](C)[C@H](NC(=O)[C@H](CCC(N)=O)NC(=O)[C@H](CS)NC(=O)[C@H](Cc1ccc(O)cc1)NC(=O)[C@H](CC(N)=O)NC(=O)[C@H](CO)NC(=O)[C@@H](NC(=O)CNC(=O)[C@H](Cc1ccccc1)NC(=O)[C@H](CCCNC(=N)N)NC(=O)[C@H](CCC(N)=O)NC(=O)[C@H](C)NC(=O)[C@@H](N)CC(N)=O)[C@@H](C)CC)C(=O)O | 7.8 nM | 365 nM
2 | DKKETVWHLE | 93 nM | 3740 nM
3 | CC[C@H](C)[C@H](NC(=O)[C@H](CO)NC(=O)[C@H](Cc1ccc(O)cc1)NC(=O)[C@H](C)NC(=O)[C@H](CS)NC(=O)[C@H](CC(C)C)NC(=O)[C@H](CC(C)C)NC(=O)[C@H](CS)NC(=O)[C@@H](N)CC(=O)O)C(=O)N[C@@H](CCC(=O)O)C(=O)N[C@@H](Cc1ccccc1)C(=O)NCC(=O)N[C@H](C(=O)N[C@@H](CC(N)=O)C(=O)N[C@H](C(=O)N[C@@H](CO)C(=O)N[C@@H](CCCCN)C(=O)N[C@@H](CCC(=O)O)C(=O)N[C@@H](Cc1c[nH]cn1)C(=O)N[C@@H](CC(=O)O)C(=O)O)[C@@H](C)CC)[C@@H](C)O (H-DCLLCAYSIEFGTNISKEHD-OH) | 343 nM | 232 nM
4 | CC[C@H](C)[C@H](NC(=O)[C@H](CC(=O)O)NC(=O)[C@@H](N)CCCCN)C(=O)N[C@@H](CC(C)C)C(=O)N[C@@H](CCC(=O)O)C(=O)N[C@@H](CC(=O)O)C(=O)N[C@@H](CCC(=O)O)C(=O)N[C@@H](CCCNC(=N)N)C(=O)N[C@@H](C)C(=O)N[C@@H](C)C(=O)N[C@H](C(=O)N[C@@H](CC(=O)O)C(=O)N[C@H](C(=O)N[C@@H](Cc1ccc(O)cc1)C(=O)N[C@@H](CS)C(=O)O)[C@@H](C)O)C(C)C | 10500 nM | 4200 nM
5 | FFLLTRILTIPQSLD | 0.3 nM | 1.2 nM
6 | CC[C@H](C)[C@H](NC(=O)[C@H](Cc1ccc(O)cc1)NC(=O)[C@H](CCC(=O)O)NC(=O)[C@H](Cc1ccccc1)NC(=O)[C@H](C)NC(=O)[C@H](CCC(N)=O)NC(=O)[C@H](CO)NC(=O)[C@@H]1CCCN1C(=O)[C@@H](N)CC(C)C)C(=O)N[C@@H](CC(C)C)C(=O)N[C@@H](Cc1ccc(O)cc1)C(=O)N[C@@H](CC(N)=O)C(=O)N[C@@H](CCCCN)C(=O)NCC(=O)O | 1 nM | 9.6 nM
7 | CC[C@H](C)[C@H](NC(=O)[C@H](Cc1c[nH]c2ccccc12)NC(=O)[C@H](CCSC)NC(=O)[C@H](CC(C)C)NC(=O)[C@H](CC(C)C)NC(=O)[C@@H](N)CO)C(=O)N[C@H](C(=O)N[C@@H](CCC(N)=O)C(=O)N[C@@H](CS)C(=O)N[C@@H](Cc1ccccc1)C(=O)N[C@@H](CC(C)C)C(=O)N1CCC[C@H]1C(=O)N[C@H](C(=O)O)C(C)C)[C@@H](C)O | 1.3 nM | 6.1 nM
